Data reported in PMC7764916, “The Cholinesterase Inhibitory Properties of Stephaniae Tetrandrae Radix” (Molecules, 2020).
Where two headings read alike, the source gives them in different places.

Assays:
AChE [1] = target: T1, AChE (Mus musculus, UniProt P21836); experiment: biochemical
T1 construct: The AChE assay medium consisted of brain lysate (5 mg/mL) with testing drugs; from tissue; host or cells: mouse brain (Triton X-100 low-salt lysate)
T1 sequence (P21836 32-614): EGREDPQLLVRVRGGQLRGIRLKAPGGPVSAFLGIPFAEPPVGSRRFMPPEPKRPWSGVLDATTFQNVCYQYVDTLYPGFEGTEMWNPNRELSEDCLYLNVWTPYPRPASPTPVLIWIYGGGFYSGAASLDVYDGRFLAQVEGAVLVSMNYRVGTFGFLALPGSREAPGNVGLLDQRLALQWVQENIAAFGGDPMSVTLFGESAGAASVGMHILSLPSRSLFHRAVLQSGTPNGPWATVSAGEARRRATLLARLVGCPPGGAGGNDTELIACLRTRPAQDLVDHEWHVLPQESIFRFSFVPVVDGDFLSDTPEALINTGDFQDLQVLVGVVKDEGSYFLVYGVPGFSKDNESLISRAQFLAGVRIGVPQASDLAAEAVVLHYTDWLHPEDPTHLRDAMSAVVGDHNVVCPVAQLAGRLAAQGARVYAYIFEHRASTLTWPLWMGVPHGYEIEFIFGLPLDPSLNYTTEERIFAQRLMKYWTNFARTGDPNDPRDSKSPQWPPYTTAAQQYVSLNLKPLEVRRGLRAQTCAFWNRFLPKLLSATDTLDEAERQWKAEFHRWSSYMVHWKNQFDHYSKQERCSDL
Procedure: The extracts and alkaloids of STR were tested for cholinesterase activity using a 96-well microtiter plate (Corning, NY, USA) with a final volume of 200 μL, according to the Ellman method. […] The mixture of brain lysate, Na2HPO4 buffer, and iso-OMPA solution was incubated at 37 °C for 10 min, and then the solutions of DNTB and ATCh were added.
Mouse serum (1: 50 v/v, diluted with precooled low-salt lysis buffer) was prepared for the BChE activity assay. The BChE assay medium consisted of the same composition as the AChE assay medium, except that the brain lysate and iso-OMPA were replaced with diluted serum solution and 0.1 μM BW284c51. The mixture of diluted serum, Na2HPO4 buffer, and BW284c51 solution was incubated at 37 °C for 10 min, and then the solutions of DNTB and ATCh were added. […] The concentration of DMSO in the reaction system of AChE/BChE assay was controlled at 0.5%. […] The protein concentrations were measured using the Bio-Rad Protein Assay kit (Hercules, CA, USA).

BChE = target: T2, BChE (Mus musculus, UniProt Q03311); experiment: BChE activity assay (Ellman method), mouse serum; type: biochemical; settings: for BChE inhibitory activity (in words): Figure 3; for IC50: alkaloids, Figure 3B
T2 construct: the brain lysate and iso-OMPA were replaced with diluted serum solution and 0.1 μM BW284c51; from tissue; host or cells: mouse serum (diluted 1:50)
T2 sequence (Q03311 30-603): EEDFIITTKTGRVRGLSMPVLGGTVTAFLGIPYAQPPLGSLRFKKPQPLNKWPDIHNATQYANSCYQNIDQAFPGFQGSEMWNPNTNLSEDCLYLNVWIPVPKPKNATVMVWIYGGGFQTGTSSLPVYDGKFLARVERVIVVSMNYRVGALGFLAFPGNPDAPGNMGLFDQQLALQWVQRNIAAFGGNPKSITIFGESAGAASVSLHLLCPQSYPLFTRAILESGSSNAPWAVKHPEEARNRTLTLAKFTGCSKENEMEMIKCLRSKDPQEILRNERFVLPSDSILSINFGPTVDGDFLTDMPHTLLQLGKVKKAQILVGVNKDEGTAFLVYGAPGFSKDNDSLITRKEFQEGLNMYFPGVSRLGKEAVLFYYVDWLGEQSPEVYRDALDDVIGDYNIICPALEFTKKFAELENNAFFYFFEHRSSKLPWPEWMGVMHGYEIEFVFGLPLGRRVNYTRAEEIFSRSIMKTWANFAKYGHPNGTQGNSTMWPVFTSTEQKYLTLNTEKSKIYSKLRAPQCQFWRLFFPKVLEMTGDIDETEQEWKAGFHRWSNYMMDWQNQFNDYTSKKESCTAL
Procedure: Mouse serum (1: 50 v/v, diluted with precooled low-salt lysis buffer) was prepared for the BChE activity assay. The BChE assay medium consisted of the same composition as the AChE assay medium, except that the brain lysate and iso-OMPA were replaced with diluted serum solution and 0.1 μM BW284c51. The mixture of diluted serum, Na2HPO4 buffer, and BW284c51 solution was incubated at 37 °C for 10 min, and then the solutions of DNTB and ATCh were added. […] The concentration of DMSO in the reaction system of AChE/BChE assay was controlled at 0.5%. […] The AChE/BChE inhibitory activity of drugs was calculated as a percentage of the control absorbance value, AChE/BChE inhibition (%) = (1 − absorbance with inhibitor/absorbance without inhibitor) × 100%. […] The protein concentrations were measured using the Bio-Rad Protein Assay kit (Hercules, CA, USA).

AChE [2] = target: T1, AChE; experiment: Enzyme kinetic analysis of AChE inhibition (Lineweaver–Burk plots); type: biochemical; settings: for type of AChE inhibition: Lineweaver–Burk plots; for Ki: estimated from Lineweaver–Burk plots, ATCh 0.040–0.625 mM
Procedure: Figure 4 The enzyme kinetic analysis of AChE inhibition by fangchinoline and cyclanoline. Different doses of fangchinoline (0.5–5 μM) and cyclanoline (30–120 μM) were added to the AChE reaction system and preincubated at 37 °C with the brain lysate, followed by the addition of a range of doses of ATCh (0.040–0.625 mM). The inhibition constants Ki were estimated from the plots of the slope versus the concentration of tested drugs. Donepezil (25 nM) served as a positive control. The data are expressed as the mean ± SEM (standard error of mean) of three […] assays, each with triplicate samples.
The Michaelis constant (Km), maximum velocity (Vmax), and inhibitory constant (Ki) were used to evaluate the kinetics of fangchinoline and cyclanoline. Lineweaver–Burk plots were then plotted using initial velocities, from which the Km and Vmax values were calculated (the absolute values of horizontal and vertical intercepts were 1/Km and 1/Vmax, respectively). The slopes of reciprocal plots were then plotted against the doses of fangchinoline and cyclanoline, and Ki values were determined as the absolute value of the x-axis intercept. Donepezil was used as a positive control. All experiments were performed in triplicate.

[3] = alkaloids, Figure 3B, read-out: AChE IC50

| Compound | IC50 (AChE [1]; Figure 5A, ATCh 0.625 mM, read-out: AChE IC50 (single drug, synergy experiment)) | IC50 (AChE [1]; [3]) | BChE inhibitory activity (in words) (BChE) | type of AChE inhibition (AChE [2]) | Ki (AChE [2]) | AChE inhibitory activity (in words) (AChE [1]; Figure 3) | IC50 (BChE) |
| --- | --- | --- | --- | --- | --- | --- | --- |
| COc1ccc2cc1Oc1ccc(cc1)C[C@H]1c3cc(c(OC)cc3CCN1C)Oc1c(O)c(OC)cc3c1[C@H](C2)N(C)CC3 [fangchinoline] | 2120 ± 160 nM | 2580 ± 280 nM | no inhibitory activity on BChE | noncompetitive | 1.79 µM |  |  |
| COc1ccc2cc1Oc1ccc(cc1)C[C@H]1c3cc(c(OC)cc3CCN1C)Oc1c(OC)c(OC)cc3c1[C@H](C2)N(C)CC3 [tetrandrine] |  |  | no or little inhibitory activity on BChE |  |  | no inhibitory activity on AChE at the maximal dissolvable concentration |  |
| COc1cc2c(cc1O)[C@@H]1Cc3ccc(OC)c(O)c3C[N@+]1(C)CC2 [cyclanoline] |  | 106000 ± 2290 nM |  | noncompetitive | 72.3 µM |  | 247 ± 5.46 µM |
| COc1ccc2c3c1O[C@H]1C[C@@H](O)C=C[C@@]31CCN(C)C2 [Galanthamine, galanthamine, reference compound] |  |  |  |  |  |  | 49.8 ± 2.5 µM |
